Measurements taken from patent US20100021599A1, “PRESERVATIVE” (LANXESS DEUTSCHLAND GMBH, priority 2006, published 2010).
Where two headings read alike, the source gives them in different places.

Tested on: Paecilomyces variotii
Details: single substance alone, fruit-component drink inoculated with conidia, incubated two weeks at 27° C.
Description: A drink which contains fruit components was admixed with various concentrations of citric acid and subsequently inoculated with conidia of the fungus Paecilomyces variotii. Subsequently, the inoculated drinks samples were treated with various DMDC concentrations and incubated for two weeks at 27° C.

Row | SMILES | MHC | MHC (listed as citric acid)
1 | COC(=O)OC(=O)OC [DMDC, dimethyl dicarbonate] | >250 ppm | –
2 | O=C(O)CC(O)(CC(=O)O)C(=O)O [Citric acid, citric acid] | >30 000 ppm | > 30 000 ppm
